# Like-named read-outs stand apart in the source and are kept apart here.
# How the values were obtained:
# Assay type in all cases: in vivo
# [1] = tested on: Surinam grass (Brachiaria decumbens); assay: Test B pre/postemergence; conditions: Urochloa decumbens; for pest or weed control at 125 g/ha: 125 g ai/ha; for pest or weed control at 500 g/ha: 500 g ai/ha
# Method in brief: (§1)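 Under greenhouse conditions, seeded pots and young plants (1- to 4-leaf, 2 to 18 cm) were treated at the same time with test chemicals in a non-phytotoxic solvent mixture containing surfactant. Response was assessed visually after 13 to 15 days, from 0 (no effect) to 100 (complete control).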
# [2] = tested on: barnyardgrass (Echinochloa crus-galli); assay: Test B pre/postemergence; conditions: Echinochloa crus-galli; for pest or weed control at 125 g/ha: 125 g ai/ha; for pest or weed control at 500 g/ha: 500 g ai/ha
# Method in brief: as §1
# [3] = tested on: cocklebur (Xanthium strumarium); assay: Test B pre/postemergence; conditions: Xanthium strumarium; for pest or weed control at 125 g/ha: 125 g ai/ha; for pest or weed control at 500 g/ha: 500 g ai/ha
# Method in brief: as §1
# corn (Zea mays) = assay: Test B pre/postemergence; conditions: Zea mays
# Method in brief: as §1
# [4] = tested on: crabgrass (Digitaria sanguinalis); assay: Test B pre/postemergence; conditions: Digitaria sanguinalis; for pest or weed control at 125 g/ha: 125 g ai/ha; for pest or weed control at 500 g/ha: 500 g ai/ha
# Method in brief: as §1
# [5] = tested on: giant foxtail (Setaria faberii); assay: Test B pre/postemergence; conditions: Setaria faberi; for pest or weed control at 125 g/ha: 125 g ai/ha; for pest or weed control at 500 g/ha: 500 g ai/ha
# Method in brief: as §1
# [6] = tested on: lambsquarters (Chenopodium album); assay: Test B pre/postemergence; conditions: Chenopodium album; for pest or weed control at 125 g/ha: 125 g ai/ha; for pest or weed control at 500 g/ha: 500 g ai/ha
# Method in brief: as §1
# [7] = tested on: morningglory (Ipomoea coccinea); assay: Test B pre/postemergence; conditions: Ipomoea; for pest or weed control at 125 g/ha: 125 g ai/ha; for pest or weed control at 500 g/ha: 500 g ai/ha
# Method in brief: as §1
# [8] = tested on: pigweed (Amaranthus retroflexus); assay: Test B pre/postemergence; conditions: Amaranthus retroflexus; for pest or weed control at 125 g/ha: 125 g ai/ha; for pest or weed control at 500 g/ha: 500 g ai/ha
# Method in brief: as §1
# [9] = tested on: velvetleaf (Abutilon theophrasti); assay: Test B pre/postemergence; conditions: Abutilon theophrasti; for pest or weed control at 125 g/ha: 125 g ai/ha; for pest or weed control at 500 g/ha: 500 g ai/ha
# Method in brief: as §1
# [10] = tested on: wheat (Triticum aestivum); assay: Test B pre/postemergence; conditions: Triticum aestivum; for plant injury at 125 g/ha: 125 g ai/ha; for plant injury at 500 g/ha: 500 g ai/ha
# Method in brief: as §1
# [11] = tested on: blackgrass (Alopecurus myosuroides); assay: Test B postemergence; conditions: Alopecurus myosuroides, post-emergence
# Method in brief: as §1
# wild oat (Avena fatua) = assay: Test B postemergence; conditions: Avena fatua, post-emergence
# Method in brief: as §1
# [12] = tested on: barnyardgrass (Echinochloa crus-galli); assay: Test B flooded paddy test; conditions: Echinochloa crus-galli, Flood, 1000 g ai/ha; scale 0 (no effect) to 100 (complete control); read-out: Plant response rating, Barnyardgrass
# Method in brief: (§2)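 Visual injury scoring (0 = no effect, 100 = complete control) versus controls made 13 to 15 days after treatment in the greenhouse. Test species were grown in flooded paddy to the 2-leaf stage: rice, barnyardgrass, umbrella sedge, duck salad.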
# [13] = tested on: duck salad (Heteranthera limosa); assay: Test B flooded paddy test; conditions: Heteranthera limosa, Flood, 1000 g ai/ha; scale 0 to 100; read-out: Plant response rating, Ducksalad
# Method in brief: as §2
# rice (Oryza sativa) = assay: Test B flooded paddy test; conditions: Oryza sativa, Flood, 1000 g ai/ha; scale 0 to 100; read-out: Plant response rating, Rice
# Method in brief: as §2
# [14] = tested on: umbrella sedge (Cyperus difformis); assay: Test B flooded paddy test; conditions: Cyperus difformis, Flood, 1000 g ai/ha; scale 0 to 100; read-out: Plant response rating, Sedge, Umbrella
# Method in brief: as §2
# [15] = pre-emergence, Preemergence, scale 0 to 100 (0 no effect, 100 complete control), read-out: Plant response rating, Wheat
smiles,measurement,setting,value
CCOC(=O)c1nc(C(C)(C)C)nc(N)c1Br [Compound 36],pest or weed control at 125 g/ha,"[1]; post-emergence, Postemergence, scale 0 to 100 (0 no effect, 100 complete control), read-out: Surinam Grass plant response rating",0%
same,pest or weed control at 500 g/ha,"[1]; post-emergence, Postemergence, scale 0 to 100, read-out: Plant response rating, Surinam Grass",0%
same,pest or weed control at 125 g/ha,"[1]; pre-emergence, Preemergence, scale 0 to 100 (0 no effect, 100 complete control), read-out: Plant response rating, Surinam Grass",0%
same,pest or weed control at 500 g/ha,"[1]; pre-emergence, Preemergence, scale 0 to 100 (0 no effect, 100 complete control), read-out: Surinam Grass plant response rating",0%
same,pest or weed control at 125 g/ha,"[2]; post-emergence, Postemergence, scale 0 to 100 (0 no effect, 100 complete control), read-out: Barnyardgrass plant response rating",0%
same,pest or weed control at 500 g/ha,"[2]; post-emergence, Postemergence, scale 0 to 100, read-out: Plant response rating, Barnyardgrass",0%
same,pest or weed control at 125 g/ha,"[2]; pre-emergence, Preemergence, scale 0 to 100 (0 no effect, 100 complete control), read-out: Plant response rating, Barnyardgrass",0%
same,pest or weed control at 500 g/ha,"[2]; pre-emergence, Preemergence, scale 0 to 100 (0 no effect, 100 complete control), read-out: Barnyardgrass plant response rating",0%
same,pest or weed control at 125 g/ha,"[3]; post-emergence, Postemergence, scale 0 to 100 (0 no effect, 100 complete control), read-out: Cocklebur plant response rating",20%
same,pest or weed control at 500 g/ha,"[3]; post-emergence, Postemergence, scale 0 to 100, read-out: Plant response rating, Cocklebur",70%
same,pest or weed control at 125 g/ha,"[3]; pre-emergence, Preemergence, scale 0 to 100 (0 no effect, 100 complete control), read-out: Plant response rating, Cocklebur",10%
same,pest or weed control at 500 g/ha,"[3]; pre-emergence, Preemergence, scale 0 to 100 (0 no effect, 100 complete control), read-out: Cocklebur plant response rating",60%
same,plant injury at 125 g/ha,"corn (Zea mays); post-emergence, Postemergence, 125 g ai/ha, scale 0 to 100 (0 no effect, 100 complete control), read-out: Corn plant response rating",0%
same,"Corn plant response rating (crop injury, 0 = no effect, 100 = complete kill) at 500 g/ha","corn (Zea mays); post-emergence, Postemergence, 500 g ai/ha, scale 0 to 100",0%
same,"Corn plant response rating (crop injury, 0 = no effect, 100 = complete kill) at 125 g/ha","corn (Zea mays); pre-emergence, Preemergence, 125 g ai/ha, scale 0 to 100 (0 no effect, 100 complete control)",0%
same,plant injury at 500 g/ha,"corn (Zea mays); pre-emergence, Preemergence, 500 g ai/ha, scale 0 to 100 (0 no effect, 100 complete control), read-out: Corn plant response rating",0%
same,pest or weed control at 125 g/ha,"[4]; post-emergence, Postemergence, scale 0 to 100 (0 no effect, 100 complete control), read-out: Crabgrass plant response rating",0%
same,pest or weed control at 500 g/ha,"[4]; post-emergence, Postemergence, scale 0 to 100, read-out: Plant response rating, Crabgrass",0%
same,pest or weed control at 125 g/ha,"[4]; pre-emergence, Preemergence, scale 0 to 100 (0 no effect, 100 complete control), read-out: Plant response rating, Crabgrass",0%
same,pest or weed control at 500 g/ha,"[4]; pre-emergence, Preemergence, scale 0 to 100 (0 no effect, 100 complete control), read-out: Crabgrass plant response rating",0%
same,pest or weed control at 125 g/ha,"[5]; post-emergence, Postemergence, scale 0 to 100 (0 no effect, 100 complete control), read-out: Foxtail, Giant plant response rating",0%
same,pest or weed control at 500 g/ha,"[5]; post-emergence, Postemergence, scale 0 to 100, read-out: Plant response rating, Foxtail, Giant",10%
same,pest or weed control at 125 g/ha,"[5]; pre-emergence, Preemergence, scale 0 to 100 (0 no effect, 100 complete control), read-out: Plant response rating, Foxtail, Giant",0%
same,pest or weed control at 500 g/ha,"[5]; pre-emergence, Preemergence, scale 0 to 100 (0 no effect, 100 complete control), read-out: Foxtail, Giant plant response rating",0%
same,pest or weed control at 125 g/ha,"[6]; post-emergence, Postemergence, scale 0 to 100 (0 no effect, 100 complete control), read-out: Lambsquarters plant response rating",40%
same,pest or weed control at 500 g/ha,"[6]; post-emergence, Postemergence, scale 0 to 100, read-out: Plant response rating, Lambsquarters",50%
same,pest or weed control at 125 g/ha,"[6]; pre-emergence, Preemergence, scale 0 to 100 (0 no effect, 100 complete control), read-out: Plant response rating, Lambsquarters",0%
same,pest or weed control at 500 g/ha,"[6]; pre-emergence, Preemergence, scale 0 to 100 (0 no effect, 100 complete control), read-out: Lambsquarters plant response rating",40%
same,pest or weed control at 125 g/ha,"[7]; post-emergence, Postemergence, scale 0 to 100 (0 no effect, 100 complete control), read-out: Morningglory plant response rating",10%
same,pest or weed control at 500 g/ha,"[7]; post-emergence, Postemergence, scale 0 to 100, read-out: Plant response rating, Morningglory",70%
same,pest or weed control at 125 g/ha,"[7]; pre-emergence, Preemergence, scale 0 to 100 (0 no effect, 100 complete control), read-out: Plant response rating, Morningglory",0%
same,pest or weed control at 500 g/ha,"[7]; pre-emergence, Preemergence, scale 0 to 100 (0 no effect, 100 complete control), read-out: Morningglory plant response rating",0%
same,pest or weed control at 125 g/ha,"[8]; post-emergence, Postemergence, scale 0 to 100 (0 no effect, 100 complete control), read-out: Pigweed plant response rating",20%
same,pest or weed control at 500 g/ha,"[8]; post-emergence, Postemergence, scale 0 to 100, read-out: Plant response rating, Pigweed",30%
same,pest or weed control at 125 g/ha,"[8]; pre-emergence, Preemergence, scale 0 to 100 (0 no effect, 100 complete control), read-out: Plant response rating, Pigweed",0%
same,pest or weed control at 500 g/ha,"[8]; pre-emergence, Preemergence, scale 0 to 100 (0 no effect, 100 complete control), read-out: Pigweed plant response rating",20%
same,pest or weed control at 125 g/ha,"[9]; post-emergence, Postemergence, scale 0 to 100 (0 no effect, 100 complete control), read-out: Velvetleaf plant response rating",20%
same,pest or weed control at 500 g/ha,"[9]; post-emergence, Postemergence, scale 0 to 100, read-out: Plant response rating, Velvetleaf",40%
same,pest or weed control at 125 g/ha,"[9]; pre-emergence, Preemergence, scale 0 to 100 (0 no effect, 100 complete control), read-out: Plant response rating, Velvetleaf",10%
same,pest or weed control at 500 g/ha,"[9]; pre-emergence, Preemergence, scale 0 to 100 (0 no effect, 100 complete control), read-out: Velvetleaf plant response rating",40%
same,plant injury at 125 g/ha,"[10]; post-emergence, Postemergence, scale 0 to 100 (0 no effect, 100 complete control), read-out: Wheat plant response rating",0%
same,plant injury at 500 g/ha,"[10]; post-emergence, Postemergence, scale 0 to 100, read-out: Plant response rating, Wheat",40%
same,plant injury at 125 g/ha,[10]; [15],0%
same,plant injury at 500 g/ha,[10]; [15],0%
same,pest or weed control at 125 g/ha,"[11]; 125 g ai/ha, scale 0 to 100 (0 no effect, 100 complete control), read-out: Blackgrass plant response rating",0%
same,pest or weed control at 500 g/ha,"[11]; 500 g ai/ha, scale 0 to 100, read-out: Plant response rating, Blackgrass",40%
same,pest or weed control at 125 g/ha,"wild oat (Avena fatua); 125 g ai/ha, scale 0 to 100 (0 no effect, 100 complete control), read-out: Oat, Wild plant response rating",0%
same,pest or weed control at 500 g/ha,"wild oat (Avena fatua); 500 g ai/ha, scale 0 to 100, read-out: Plant response rating, Oat, Wild",40%
same,pest or weed control at 1000 g/ha,[12],0%
same,pest or weed control at 1000 g/ha,[13],0%
same,plant injury at 1000 g/ha,rice (Oryza sativa),0%
same,pest or weed control at 1000 g/ha,[14],0%
